Measurements reported in patent US9469650B2, “Melampomagnolide B derivatives” (BOARD OF TRUSTEES OF THE UNIVERSITY OF ARKANSAS, priority 2013, dated 2016).

Key:
[1] = system: ACHN; assay: panel of 60 human tumor cell lines, growth inhibition (Renal Cancer); conditions: Homo sapiens; for CC50: read-out: LC50; for IC (TGI): read-out: TGI
[2] = system: SK-MEL-5; assay: panel of 60 human tumor cell lines, growth inhibition (Melanoma); conditions: Homo sapiens; for GI50: SK-MEL-5; for CC50: SK-MEL-5, read-out: LC50; for IC (TGI): SK-MEL-5, read-out: TGI
[3] = system: NCI-H322M; assay: panel of 60 human tumor cell lines, growth inhibition (Non-Small Cell Lung Cancer); conditions: Homo sapiens; for CC50: read-out: LC50; for IC (TGI): read-out: TGI
[4] = system: HCT-15; assay: panel of 60 human tumor cell lines, growth inhibition (Colon Cancer); conditions: Homo sapiens; for GI50: HCT-15; for CC50: HCT-15, read-out: LC50; for IC (TGI): HCT-15, read-out: TGI
[5] = system: IGROV1; assay: panel of 60 human tumor cell lines, growth inhibition (Ovarian Cancer); conditions: Homo sapiens; for GI50: IGROV-1; for CC50: IGROV-1, read-out: LC50; for IC (TGI): IGROV-1, read-out: TGI
[6] = system: MCF7; assay: panel of 60 human tumor cell lines, growth inhibition (Breast Cancer); conditions: Homo sapiens; for CC50: MCF7, read-out: LC50; for IC (TGI): MCF7, read-out: TGI
[7] = system: T-47D; assay: as above; conditions: Homo sapiens, T47D; for CC50: read-out: LC50; for IC (TGI): read-out: TGI
[8] = system: SNB-19; assay: panel of 60 human tumor cell lines, growth inhibition (CNS Cancer); conditions: Homo sapiens; for GI50: SNB-19; for CC50: SNB-19, read-out: LC50; for IC (TGI): SNB-19, read-out: TGI
[9] = system: RXF 393; assay: panel of 60 human tumor cell lines, growth inhibition (Renal Cancer); conditions: Homo sapiens; for CC50: RXF 393, read-out: LC50; for IC (TGI): RXF 393, read-out: TGI
[10] = system: MDA-MB-435; assay: panel of 60 human tumor cell lines, growth inhibition (Melanoma); conditions: Homo sapiens; for GI50: MDA-MB-435; for CC50: MDA-MB-435, read-out: LC50; for IC (TGI): MDA-MB-435, read-out: TGI
[11] = system: BT-549; assay: panel of 60 human tumor cell lines, growth inhibition (Breast Cancer); conditions: Homo sapiens; for GI50: BT-549; for CC50: BT-549, read-out: LC50; for IC (TGI): BT-549, read-out: TGI
[12] = system: HOP-92; assay: panel of 60 human tumor cell lines, growth inhibition (Non-Small Cell Lung Cancer); conditions: Homo sapiens; for CC50: HOP-92, read-out: LC50; for IC (TGI): HOP-92, read-out: TGI
[13] = system: NCI-H460; assay: as above; conditions: Homo sapiens; for GI50: NCI-H460; for CC50: NCI-H460, read-out: LC50; for IC (TGI): NCI-H460, read-out: TGI
[14] = system: UO-31; assay: panel of 60 human tumor cell lines, growth inhibition (Renal Cancer); conditions: Homo sapiens; for GI50: UO-31; for CC50: UO-31, read-out: LC50; for IC (TGI): UO-31, read-out: TGI
[15] = system: SF-539; assay: panel of 60 human tumor cell lines, growth inhibition (CNS Cancer); conditions: Homo sapiens; for GI50: SF-539; for CC50: SF-539, read-out: LC50; for IC (TGI): SF-539, read-out: TGI
[16] = system: HCC-2998; assay: panel of 60 human tumor cell lines, growth inhibition (Colon Cancer); conditions: Homo sapiens; for GI50: HCC 2998; for CC50: HCC 2998, read-out: LC50; for IC (TGI): HCC 2998, read-out: TGI
[17] = system: SK-OV-3; assay: panel of 60 human tumor cell lines, growth inhibition (Ovarian Cancer); conditions: Homo sapiens; for GI50: SK-OV-3; for CC50: SK-OV-3, read-out: LC50; for IC (TGI): SK-OV-3, read-out: TGI
[18] = system: MOLT-4; assay: panel of 60 human tumor cell lines, growth inhibition (Leukemia); conditions: Homo sapiens; for GI50: MOLT-4; for CC50: MOLT-4, read-out: LC50; for IC (TGI): MOLT-4, read-out: TGI
[19] = system: NCI-H23; assay: panel of 60 human tumor cell lines, growth inhibition (Non-Small Cell Lung Cancer); conditions: Homo sapiens; for GI50: NCI-H23; for CC50: NCI-H23, read-out: LC50; for IC (TGI): NCI-H23, read-out: TGI

Compound: C=C1C(=O)O[C@H]2[C@H]1CC/C(COC(=O)NCCN1CCOCC1)=C\CC[C@@]1(C)O[C@@H]21 [JVM 57, ((1aR,7aS,10aS,10bS,E)-1a-methyl-8-methylene-9-oxo-1a,2,3,6,7,7a,8,9,10a,10b-decahydrooxireno[2′,3′:9,10]-cyclodeca[1,2-b]furan-5-yl)-methyl(2-morpholinoethyl)carbamate]
- GI50 [1]: 3.74 µM
- CC50 [1]: 44.3 µM
- IC (TGI) [1]: 14.3 µM
- GI50 [2]: 12.7 µM
- CC50 [2]: 50.9 µM
- IC (TGI) [2]: 25.4 µM
- GI50 [3]: 37.9 µM
- CC50 [3]: > 100 µM
- IC (TGI) [3]: > 100 µM
- GI50 [4]: 10.5 µM
- CC50 [4]: > 100 µM
- IC (TGI) [4]: 34.4 µM
- GI50 [5]: 3.49 µM
- CC50 [5]: 58.6 µM
- IC (TGI) [5]: 14.6 µM
- GI50 ([6]; MCF7, MCF7): 3.54 µM
- GI50 ([6]; MCF7, MCF7, 5-dose assay): 3.54 µM
- CC50 [6]: 53.1 µM
- IC (TGI) [6]: 14.4 µM
- GI50 [7]: 6.32 µM
- CC50 [7]: 71.5 µM
- IC (TGI) [7]: 23.2 µM
- GI50 [8]: 45.3 µM
- CC50 [8]: > 100 µM
- IC (TGI) [8]: > 100 µM
- GI50 ([9]; RXF 393, RXF 393): 3 µM
- GI50 ([9]; RXF 393, RXF 393, 5-dose assay): 3 µM
- CC50 [9]: 41 µM
- IC (TGI) [9]: 11.9 µM
- GI50 [10]: 5.89 µM
- CC50 [10]: 66.9 µM
- IC (TGI) [10]: 22 µM
- GI50 [11]: 4.99 µM
- CC50 [11]: 49.3 µM
- IC (TGI) [11]: 17.6 µM
- GI50 ([12]; HOP-92, HOP-92): 2.3 µM
- GI50 ([12]; HOP-92, HOP-92, 5-dose assay): 2.3 µM
- CC50 [12]: 33.7 µM
- IC (TGI) [12]: 8.61 µM
- GI50 [13]: 27.1 µM
- CC50 [13]: > 100 µM
- IC (TGI) [13]: 87.3 µM
- GI50 [14]: 10.7 µM
- CC50 [14]: 54.5 µM
- IC (TGI) [14]: 24.1 µM
- GI50 [15]: 14.4 µM
- CC50 [15]: 55.2 µM
- IC (TGI) [15]: 28.2 µM
- GI50 [16]: 19.7 µM
- CC50 [16]: 72.3 µM
- IC (TGI) [16]: 37.7 µM
- GI50 [17]: 48.5 µM
- CC50 [17]: > 100 µM
- IC (TGI) [17]: > 100 µM
- GI50 [18]: 5 µM
- CC50 [18]: > 100 µM
- IC (TGI) [18]: 22.9 µM
- GI50 [19]: 15.8 µM
- CC50 [19]: 84.3 µM
- IC (TGI) [19]: 36.5 µM

Compound: C=C1C(=O)O[C@H]2[C@H]1CC/C(COC(=O)NCCN1CCCC1)=C\CC[C@@]1(C)O[C@@H]21 [JVM 59, ((1aR,7aS,10aS,10bS,E)-1a-methyl-8-methylene-9-oxo-1a,2,3,6,7,7a,8,9,10a,10b-decahydrooxireno[2′,3′:9,10]cyclodeca[1,2-b]furan-5-yl)methyl-(2-(pyrrolidin-1-yl)ethyl)carbamate]
- GI50 [1]: 3.8 µM
- CC50 [1]: 39.4 µM
- IC (TGI) [1]: 14.7 µM
- GI50 [2]: 15.5 µM
- CC50 [2]: 55.1 µM
- IC (TGI) [2]: 29.2 µM
- GI50 [3]: 73.9 µM
- CC50 [3]: > 100 µM
- IC (TGI) [3]: > 100 µM
- GI50 [4]: 13.5 µM
- CC50 [4]: 91.2 µM
- IC (TGI) [4]: 35.1 µM
- GI50 [5]: 4.09 µM
- CC50 [5]: 68.5 µM
- IC (TGI) [5]: 16.2 µM
- GI50 ([6]; MCF7, MCF7, five dose): 3.91 µM
- GI50 ([6]; MCF7, MCF7, 5-dose assay): 3.91 µM
- CC50 [6]: 63.7 µM
- IC (TGI) [6]: 17.1 µM
- GI50 [7]: 4.86 µM
- CC50 [7]: 63.8 µM
- IC (TGI) [7]: 19.2 µM
- GI50 [8]: 59.1 µM
- CC50 [8]: > 100 µM
- IC (TGI) [8]: > 100 µM
- GI50 ([9]; RXF 393, RXF 393, five dose): 4.08 µM
- GI50 ([9]; RXF 393, RXF 393, 5-dose assay): 4.08 µM
- CC50 [9]: 47.9 µM
- IC (TGI) [9]: 16.8 µM
- GI50 [10]: 6.56 µM
- CC50 [10]: 53.4 µM
- IC (TGI) [10]: 21.1 µM
- GI50 [11]: 4.75 µM
- CC50 [11]: 45 µM
- IC (TGI) [11]: 18.6 µM
- GI50 ([12]; HOP-92, HOP-92, five dose): 2.25 µM
- GI50 ([12]; HOP-92, HOP-92, 5-dose assay): 2.25 µM
- CC50 [12]: 32.3 µM
- IC (TGI) [12]: 7.86 µM
- GI50 [13]: 22.3 µM
- CC50 [13]: > 100 µM
- IC (TGI) [13]: 51.4 µM
- GI50 [14]: 13.4 µM
- CC50 [14]: 75.3 µM
- IC (TGI) [14]: 31.8 µM
- GI50 [15]: 15 µM
- CC50 [15]: 54.1 µM
- IC (TGI) [15]: 28.5 µM
- GI50 [16]: 19.2 µM
- CC50 [16]: 67.9 µM
- IC (TGI) [16]: 36.1 µM
- GI50 [17]: 29.4 µM
- CC50 [17]: > 100 µM
- IC (TGI) [17]: > 100 µM
- GI50 [18]: 3.48 µM
- CC50 [18]: 89.7 µM
- IC (TGI) [18]: 17.5 µM
- GI50 [19]: 16.4 µM
- CC50 [19]: 80.4 µM
- IC (TGI) [19]: 36.3 µM
